ChEMBL document CHEMBL1122165, “Retinoids at the threshold: their biological significance and therapeutic potential” (J Med Chem, 1982)

What follows are compounds tested on Mus musculus (assay: Antipapilloma activity was determined after intraperitoneal administration in mice). Settings: ip.
Type: functional
Work on `CCOC(=O)c1ccc(/C=C(\C)c2ccc3c(c2)C(C)(C)CCC3(C)C)cc1` [AROTINOID] yielded an ED50 of 0.05 mg/kg. For `CCOC(=O)/C=C(C)/C=C/C=C(C)/C=C/c1c(C)sc(C)c1C`, the ED50 was 75 mg/kg. `CC1=C(/C=C/C(C)=C/C=C/C(C)=C/C(=O)O)C(C)(C)CCC1` [TRETINOIN] was tested, and the ED50 was 400 mg/kg. In the case of `COc1cc(C)c(/C=C/C(C)=C/C=C(F)/C(C)=C/C(=O)O)c(C)c1C`, the ED50 is reported as 11.5 mg/kg. `CCOC(=O)/C=C(C)/C=C/C=C(C)/C=C/c1c(C)cc(OC)c(C)c1C` [ETRETINATE] showed an ED50 of 25 mg/kg. `CC1=C(/C=C/C(C)=C/C=C/C(C)=C\C(=O)O)C(C)(C)CCC1` [ISOTRETINOIN] was tested, and the ED50 was 800 mg/kg. For `CCOC(=O)/C=C(C)/C=C/C=C(C)/C=C/c1c(Cl)cc(OC)c(C)c1Cl`, the ED50 was 6 mg/kg.

What follows are compounds tested on Mus musculus (assay: Lowest daily intraperitoneal dose causing hypervitaminosis A symptoms was determined in a 2-week period in mice). Settings: not given.
Type: functional
Compound `CCOC(=O)c1ccc(/C=C(\C)c2ccc3c(c2)C(C)(C)CCC3(C)C)cc1` [AROTINOID] has a Dose of 0.1 mg/kg. `CCOC(=O)/C=C(C)/C=C/C=C(C)/C=C/c1c(C)sc(C)c1C` showed a Dose of 200 mg/kg. `CC1=C(/C=C/C(C)=C/C=C/C(C)=C/C(=O)O)C(C)(C)CCC1` [TRETINOIN] was tested, and the Dose was 80 mg/kg. In the case of `COc1cc(C)c(/C=C/C(C)=C/C=C(F)/C(C)=C/C(=O)O)c(C)c1C`, the Dose is reported as 25 mg/kg. In the case of `CCOC(=O)/C=C(C)/C=C/C=C(C)/C=C/c1c(C)cc(OC)c(C)c1C` [ETRETINATE], the Dose is reported as 50 mg/kg. Compound `CC1=C(/C=C/C(C)=C/C=C/C(C)=C\C(=O)O)C(C)(C)CCC1` [ISOTRETINOIN] has a Dose of 400 mg/kg. For `CCOC(=O)/C=C(C)/C=C/C=C(C)/C=C/c1c(Cl)cc(OC)c(C)c1Cl`, the Dose was 12 mg/kg.
